{"source": "patent US20220280447A1", "about": "“COMPOSITIONS AND METHODS FOR IMPROVING BRAIN FUNCTION” (HEALTH VIA MODERN NUTRITION INC., priority 2021, published 2022)", "origin": "cited, not measured here", "key": {"[1]": {"conditions": "rats fed diet supplemented as 30% of calories"}, "[2]": {"conditions": "in vitro studies"}, "[3]": {"system": "reactive oxygen species (ROS) production by mitochondria", "conditions": "in vitro"}, "[4]": {"conditions": "children"}, "NF-icB activation": {"system": "NF-icB activation", "conditions": "in vitro"}, "[5]": {"conditions": "Schizophrenia-like rat model"}, "[6]": {"conditions": "teenagers with social anxiety disorders"}, "[7]": {"conditions": "animal models"}, "[8]": {"conditions": "animal studies"}, "[9]": {"conditions": "Alzheimer's disease transgenic mice"}, "[10]": {"conditions": "20-month oral administration, patient with Alzheimer's disease dementia"}}, "note": "Where two headings read alike, the source gives them in different places."}
{"molecule": "C[C@@H](O)CCOC(=O)C[C@@H](C)O", "note": "[(R)-3-hydroxyburyl (R)-3-hydroxybutyrate]", "values": [{"measurement": "cognitive and physical performance", "setting": "[1]", "result": "improved cognitive and physical performance"}]}
{"molecule": "C=C(C)[C@@H]1CCC(C)=C[C@H]1c1c(O)cc(CCCCC)cc1O", "note": "[CBD, cannabidiol]", "values": [{"measurement": "anti-inflammatory properties", "setting": "[2]", "result": "strong anti-inflammatory properties"}, {"measurement": "reactive oxygen species (ROS) production by mitochondria", "setting": "[3]", "result": "inhibits"}, {"measurement": "treatment of certain seizure disorders", "setting": "[4]", "result": "effective"}, {"measurement": "NF-icB activation", "setting": "NF-icB activation", "result": "inhibits"}, {"measurement": "cognitive impairment", "setting": "[5]", "result": "improve cognitive impairment"}, {"measurement": "cortical transcriptional changes", "setting": "[5]", "result": "reverse cortical transcriptional changes"}, {"measurement": "anxiolytic effect", "setting": "[6]", "result": "anxiolytic effect"}, {"measurement": "anti-anxiety and antidepressant effects", "setting": "[7]", "result": "anti-anxiety and antidepressant effects"}, {"measurement": "anti-inflammatory properties", "setting": "[8]", "result": "strong anti-inflammatory properties"}, {"measurement": "effect on adenosine A1 receptors", "setting": "adenosine A1 receptors", "result": "affect adenosine A1 receptors"}, {"measurement": "development of a social recognition deficit", "setting": "[9]", "result": "prevent the development of a social recognition deficit"}]}
{"molecule": "C[C@@H](O)CCOC(=O)C[C@@H](C)O", "note": "[ketone monoester]", "values": [{"measurement": "mood, affect, self-care, cognitive and daily activity performance", "setting": "[10]", "result": "improved markedly"}]}
